From patent US10173968B2, “Bishydrazone-based antifungal agents” (University of Kentucky Research Foundation, priority 2016, dated 2019)
Like-named read-outs stand apart in the source and are kept apart here.

How the values were obtained:
[1] = test system: C. albicans strains (panel of seven); test: Antifungal MIC, summary over the panel; type: cell-based, Candida albicans; settings: Candida albicans; all, most or majority of the fungal strains; read-out: MIC, span over C. albicans strains
Method: In vitro MIC testing was performed according to the CLSI M27-A3 standard microbroth dilution methodology for the susceptibility testing of yeasts with minor modifications. […] MIC values were read visually for all tested compounds, and the endpoint was determined as the minimum concentration of compound that yielded complete inhibition relative to growth control.

C. albicans ATCC 90819 = test: Antifungal MIC, CLSI M27-A3 microbroth dilution; type: cell-based, Candida albicans; settings: Candida albicans, ATCC90819, C. albicans ATCC 90819, resistant to FLC, ITC, and VOR, read-out: MIC
Method: (§1) In vitro MIC testing was performed according to the CLSI M27-A3 standard microbroth dilution methodology for the susceptibility testing of yeasts with minor modifications.

C. albicans ATCC 1237 = test: Antifungal MIC, CLSI M27-A3 microbroth dilution; type: cell-based, Candida albicans; settings: ITC, and VOR
Method: as §1

C. albicans ATCC 2310 = test: Antifungal MIC, CLSI M27-A3 microbroth dilution; type: cell-based, Candida albicans; settings: Candida albicans, ATCC2310, C. albicans ATCC 2310, susceptible to FLC, ITC, and VOR, read-out: MIC
Method: as §1

C. albicans ATCC 1003 = test: Antifungal MIC, CLSI M27-A3 microbroth dilution; type: cell-based, Candida albicans; settings: Candida albicans, ATCC1003, read-out: MIC
Method: as §1

C. albicans ATCC 2876 = test: Antifungal MIC, CLSI M27-A3 microbroth dilution; type: cell-based, Candida albicans; settings: Candida albicans, ATCC2876, C. albicans ATCC 2876, susceptible to FLC, ITC, and VOR, read-out: MIC
Method: as §1

C. albicans ATCC 10231 = test: Antifungal MIC, CLSI M27-A3 microbroth dilution; type: cell-based, Candida albicans; settings: Candida albicans, ATCC10231, C. albicans ATCC 10231, resistant to FLC, ITC, and VOR, read-out: MIC
Method: as §1

C. albicans ATCC 64124 = test: Antifungal MIC, CLSI M27-A3 microbroth dilution; type: cell-based, Candida albicans; settings: Candida albicans, ATCC64124, C. albicans ATCC 64124, resistant to FLC, ITC, and VOR, read-out: MIC
Method: as §1

E. coli MC1061 = test: Antibacterial MIC, double-dilution method; type: cell-based; settings: Escherichia coli, strain G, Gram-negative, read-out: MIC
Method: (§2) MIC values were determined against a variety of Gram-positive (strains A-D) and Gram-negative (E-J) bacterial and mycobacterial (K) strains using the double-dilution method, as previously published. Preliminary screening was performed using 500 μM of each compound.

P. aeruginosa ATCC 27853 = test: Antibacterial MIC, double-dilution method; type: cell-based; settings: Pseudomonas aeruginosa, ATCC27853
Method: as §2

VRE = test: Antibacterial MIC, double-dilution method; type: cell-based; settings: Enterococcus
Method: as §2

S. enterica ATCC 14028 = test: Antibacterial MIC, double-dilution method; type: cell-based; settings: Salmonella enterica, ATCC14028
Method: as §2

B. subtilis 168 = test: Antibacterial MIC, double-dilution method; type: cell-based; settings: Bacillus subtilis, strain A, Gram-positive
Method: as §2

A. baumannii ATCC 19606 = test: Antibacterial MIC, double-dilution method; type: cell-based; settings: Acinetobacter baumannii, ATCC19606
Method: as §2

M. smegmatis MC2-155 = test: Antibacterial MIC, double-dilution method; type: cell-based; settings: Mycolicibacterium smegmatis, MC2155, strain K, mycobacterial, read-out: MIC
Method: as §2

E. cloacae ATCC 13047 = test: Antibacterial MIC, double-dilution method; type: cell-based; settings: Enterobacter cloacae, ATCC13047
Method: as §2

K. pneumoniae ATCC 27736 = test: Antibacterial MIC, double-dilution method; type: cell-based; settings: Klebsiella pneumoniae, ATCC27736
Method: as §2

[2] = test system: L. monocytogenes ATCC 19115; test: Antibacterial MIC, double-dilution method; type: cell-based; settings: Listeria monocytogenes, ATCC19115
Method: as §2

MRSA = test: Antibacterial MIC, double-dilution method; type: cell-based; settings: Staphylococcus aureus
Method: as §2

[3] = Candida albicans, ATCC1237, C. albicans ATCC 1237, resistant to FLC, converted from μg/mL, read-out: MIC
[4] = Candida albicans, ATCC1237, C. albicans ATCC 1237, resistant to FLC, read-out: MIC
[5] = C. albicans ATCC 1003, converted from μg/mL
[6] = strain I, Gram-negative, converted from μM, read-out: MIC
[7] = strain I, Gram-negative, range 0.5 to 500 μM, read-out: MIC
[8] = strain D, Gram-positive, range 0.5 to 500 μM, read-out: MIC
[9] = strain J, Gram-negative, range 0.5 to 500 μM, read-out: MIC
[10] = strain E, Gram-negative, range 0.5 to 500 μM, read-out: MIC
[11] = strain F, Gram-negative, range 0.5 to 500 μM, read-out: MIC
[12] = strain H, Gram-negative, converted from μM, read-out: MIC
[13] = strain H, Gram-negative, range 0.5 to 500 μM, read-out: MIC
[14] = strain B, Gram-positive, range 0.5 to 500 μM, read-out: MIC
[15] = strain C, Gram-positive, range 0.5 to 500 μM, read-out: MIC
[16] = strain D, Gram-positive, converted from μM, read-out: MIC
[17] = strain B, Gram-positive, converted from μM, read-out: MIC

SMILES	MIC (C. albicans ATCC 90819; converted from μg/mL)	MIC (C. albicans ATCC 90819)	MIC (C. albicans ATCC 1237; [3])	MIC (C. albicans ATCC 1237; [4])	MIC (C. albicans ATCC 2310; converted from μg/mL)	MIC (C. albicans ATCC 2310)	MIC (C. albicans ATCC 1003; [5])	MIC (C. albicans ATCC 1003)	MIC (C. albicans ATCC 2876; converted from μg/mL)	MIC (C. albicans ATCC 2876)	MIC (C. albicans ATCC 10231; converted from μg/mL)	MIC (C. albicans ATCC 10231)	MIC (C. albicans ATCC 64124; converted from μg/mL)	MIC (C. albicans ATCC 64124)	MIC (E. coli MC1061; converted from μM)	MIC (E. coli MC1061; range 0.5 to 500 μM)	MIC (P. aeruginosa ATCC 27853; [7])	MIC (VRE; [8])	MIC (S. enterica ATCC 14028; [9])	MIC (B. subtilis 168; converted from μM)	also measured
C/C(=N\NC(=N)N)c1ccc(-c2ccc(/C(C)=N/NC(=N)N)cc2)cc1.Cl.Cl [Compound 4A, (2E,2′E)-2,2′-([1,1′-Biphenyl]-4,4′-diylbis(ethan-1-yl-1-ylidene))bis(hydrazine-1-carboximidamide) dihydrochloride]	9.2 µM	3.9 µg/mL	> 73.9 µM	31.3 µg/mL	9.2 µM	3.9 µg/mL	18.4 µM	7.8 µg/mL	4.7 µM	2 µg/mL	4.7 to 9.2 µM	2 to 3.9 µg/mL	4.7 µM	2 µg/mL	26.5 µg/mL	62.5 µM	2 µM	> 500 µM	> 500 µM	> 212 µg/mL	MIC [1]: 2 to 3.9 µg/mL; MIC (C. albicans ATCC 1237; C. albicans ATCC 1237, resistant to FLC, dihydrochloride): >31.3 µg/mL; MIC (P. aeruginosa ATCC 27853; [6]): 0.8 µg/mL; MIC (VRE): > 212 µg/mL; MIC (S. enterica ATCC 14028): > 212 µg/mL; MIC (B. subtilis 168; range 0.5 to 500 μM): > 500 µM; MIC (A. baumannii ATCC 19606): > 212 µg/mL; MIC (A. baumannii ATCC 19606; [10]): > 500 µM; MIC (M. smegmatis MC2-155; converted from μM): > 212 µg/mL; MIC (M. smegmatis MC2-155; range 0.5 to 500 μM): > 500 µM; MIC (E. cloacae ATCC 13047; strain F, Gram-negative, converted from μM, read-out: MIC): 52.9 µg/mL; MIC (E. cloacae ATCC 13047; [11]): 125 µM; MIC (K. pneumoniae ATCC 27736; [12]): 6.6 µg/mL; MIC (K. pneumoniae ATCC 27736; [13]): 15.6 µM; MIC [2]: > 212 µg/mL; MIC [2, 14]: > 500 µM; MIC (MRSA): > 212 µg/mL; MIC (MRSA; [15]): > 500 µM
C/C(=N\NC(=N)N)c1ccc(/C(C)=N/NC(=N)N)cc1.Cl.Cl [Compound 4G, (2E,2′E)-2,2′-(1,4-Phenylenebis(ethan-1-yl-1-ylidene))bis(hydrazine-1-carboximidamide) dihydrochloride]	> 90.1 µM	> 31.3 µg/mL	> 90.1 µM	> 31.3 µg/mL	> 90.1 µM	> 31.3 µg/mL	> 90.1 µM	> 31.3 µg/mL	> 90.1 µM	> 31.3 µg/mL	> 90.1 µM	> 31.3 µg/mL	90.1 µM	31.3 µg/mL	> 173 µg/mL	> 500 µM	250 µM	125 µM	250 to 500 µM	86.8 µg/mL	MIC (P. aeruginosa ATCC 27853; [6]): 86.8 µg/mL; MIC (VRE; [16]): 43.4 µg/mL; MIC (S. enterica ATCC 14028; strain J, Gram-negative, converted from μM, read-out: MIC): 86.8 to 173 µg/mL; MIC (B. subtilis 168; range 0.5 to 500 μM): 250 µM; MIC (A. baumannii ATCC 19606; strain E, Gram-negative, converted from μM, read-out: MIC): 173 µg/mL; MIC (A. baumannii ATCC 19606; [10]): 500 µM; MIC (M. smegmatis MC2-155; converted from μM): > 173 µg/mL; MIC (M. smegmatis MC2-155; range 0.5 to 500 μM): > 500 µM; MIC (E. cloacae ATCC 13047): > 173 µg/mL; MIC (E. cloacae ATCC 13047; [11]): > 500 µM; MIC (K. pneumoniae ATCC 27736; [12]): 173 µg/mL; MIC (K. pneumoniae ATCC 27736; [13]): 500 µM; MIC [2, 17]: 86.8 µg/mL; MIC [2, 14]: 250 µM; MIC (MRSA): > 173 µg/mL; MIC (MRSA; [15]): > 500 µM
Cl.Cl.N=C(N)N/N=C/c1ccc(-c2ccc(/C=N/NC(=N)N)cc2)cc1 [Compound 3A, (2E,2′E)-2,2′-([1,1′-Biphenyl]-4,4′-diylbis(methanylylidene))bis(hydrazine-1-carboximidamide) dihydrochloride]	> 79.2 µM	> 31.3 µg/mL	39.5 µM	15.6 µg/mL	> 79.2 µM	> 31.3 µg/mL	19.7 µM	7.8 µg/mL	19.7 µM	7.8 µg/mL	39.5 µM	15.6 µg/mL	> 79.2 µM	> 31.3 µg/mL	> 198 µg/mL	> 500 µM	> 500 µM	2 µM	> 500 µM	> 198 µg/mL	MIC (P. aeruginosa ATCC 27853): > 198 µg/mL; MIC (VRE; [16]): 0.8 µg/mL; MIC (S. enterica ATCC 14028): > 198 µg/mL; MIC (B. subtilis 168; range 0.5 to 500 μM): > 500 µM; MIC (A. baumannii ATCC 19606): > 198 µg/mL; MIC (A. baumannii ATCC 19606; [10]): > 500 µM; MIC (M. smegmatis MC2-155; converted from μM): > 198 µg/mL; MIC (M. smegmatis MC2-155; range 0.5 to 500 μM): > 500 µM; MIC (E. cloacae ATCC 13047): > 198 µg/mL; MIC (E. cloacae ATCC 13047; [11]): > 500 µM; MIC (K. pneumoniae ATCC 27736): > 198 µg/mL; MIC (K. pneumoniae ATCC 27736; [13]): > 500 µM; MIC [2, 17]: 0.4 µg/mL; MIC [2, 14]: 1 µM; MIC (MRSA; strain C, Gram-positive, converted from μM, read-out: MIC): 1.5 µg/mL; MIC (MRSA; [15]): 3.9 µM
